Measurements as given in PubChem BioAssay (NCI).
“And” between values parts separate entries of the source, which are not always exact repeats. Identical values can stand only once.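 Cells were grown in 96-well plates and exposed to each compound for 48 hours at five concentrations; endpoints were interpolated linearly between bracketing concentrations, or set to the highest concentration if not reached. GI50: concentration for 50% inhibition of growth. TGI denotes the concentration required for complete inhibition of growth.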

Columns and labels:
Assay in all cases: NCI-60 cell line screen, 48 h
A549 NSCLC = test system: A549 NSCLC
ACHN renal = test system: ACHN renal
HCT-15 colon = test system: HCT-15 colon
HS 578T breast = test system: HS 578T breast
K-562 leukemia = test system: K-562 leukemia
KM12 colon = test system: KM12 colon
M14 melanoma = test system: M14 melanoma
MCF7 breast = test system: MCF7 breast
NCI-H226 lung = test system: NCI-H226 lung
OVCAR-5 ovarian = test system: OVCAR-5 ovarian

SMILES | GI50 (A549 NSCLC) | TGI (A549 NSCLC) | GI50 (ACHN renal) | TGI (ACHN renal) | GI50 (HCT-15 colon) | TGI (HCT-15 colon) | GI50 (HS 578T breast) | TGI (HS 578T breast) | GI50 (K-562 leukemia) | TGI (K-562 leukemia) | GI50 (KM12 colon) | TGI (KM12 colon) | GI50 (M14 melanoma) | TGI (M14 melanoma) | GI50 (MCF7 breast) | TGI (MCF7 breast) | GI50 (NCI-H226 lung) | TGI (NCI-H226 lung) | GI50 (OVCAR-5 ovarian) | TGI (OVCAR-5 ovarian)
C/C(=C\c1c[nH]c2ccccc12)[N+](=O)[O-] | 5.85 µM | 21.4 µM | 4.36 µM | 16.6 µM | 2.48 µM | 13.7 µM | 7.61 µM | 43.8 µM | 4.03 µM | 16.5 µM | 3.98 µM | 15.6 µM | 2.57 µM | 5.65 µM | 2.67 µM | 28 µM | 13.3 µM | 30.6 µM | 19.3 µM | 34 µM
COc1cccc2c1c1nc3cc(C)c(C)cc3nc1n2CCN(C)C | 1.99 µM | 12 µM | 0.433 µM | 10.3 µM | 1.64 µM | 11.2 µM | 1.8 µM | 6.99 µM | 0.982 µM | 9.12 µM | 1.83 µM | 9.43 µM | 1.24 µM | 3.07 µM | 2.13 µM | 10.9 µM | 1.63 µM | 6.45 µM | 2.4 µM | 9.48 µM
Cn1cc(C2=C(c3c4n(c5ccccc35)CCC(CN)CC4)C(=O)NC2=O)c2ccccc21 (centres undefined) | 4.14 µM | 9.24 µM | 4.43 µM | 8.67 µM | 4.82 µM | 9.93 µM | 2.56 µM | 8.5 µM | 4.72 µM | 11.9 µM | 3.88 µM | 7.39 µM | 4.29 µM | 8.26 µM | 3.48 µM | 7.41 µM | 5.01 µM | 16.2 µM | 3.51 µM | 9.14 µM
COC(=O)Nc1nc2ccc(Oc3ccc(NC(=O)Nc4cccc(Cl)c4)cc3)cc2[nH]1 | 2.02 µM | 8.87 µM | 2.23 µM | > 18.6 µM | 0.815 µM | > 25 µM | 0.553 µM | 9.67 µM | 0.175 µM | > 25 µM | 0.147 µM | 3.8 µM | 1.25 µM | > 11.8 µM | 0.307 µM | 4.75 µM | 2.46 µM | 24.3 µM | 4.04 µM | > 25 µM
COC(=O)[C@@H](C)C[C@H](Cc1ccccc1)NC(=O)c1csc([C@@H](C[C@H](C(C)C)N(C)C(=O)[C@@H](NC(=O)[C@H]2CCCCN2C)C(C)C)OC(C)=O)n1 | 0.000457 µM and 0.0025 µM | > 25 µM | 0.000417 µM and 0.0025 µM | > 25 µM | 0.00031 µM and 0.0025 µM | > 25 µM | 0.000641 µM |  |  | > 25 µM |  | > 25 µM | 0.000134 µM | 0.000531 µM |  | > 25 µM | 0.0025 µM | > 25 µM | 0.000369 µM and 0.0025 µM | > 25 µM
O=C(/C=C\Sc1nccc(C(F)(F)F)n1)c1ccc(Br)cc1 | > 100 µM | > 100 µM | 15.9 µM | 29.7 µM | 20.7 µM | 70.6 µM | 40.5 µM | > 100 µM | 15 µM | 44.1 µM | 38.1 µM | > 100 µM | 17.9 µM | 35.5 µM | 28 µM | 84.8 µM | 26.9 µM | 87.8 µM | 21.8 µM | 70.7 µM
COc1cc(C(=O)n2nc(N3CCN(C)CC3)c3cc(N)ccc32)cc(OC)c1OC | 6.89 µM | > 100 µM | 4.2 µM | > 100 µM | 3.45 µM | > 100 µM | 12.8 µM | > 100 µM | 3.57 µM | 13.2 µM | 3.51 µM | 27.2 µM | 3.74 µM | 16.7 µM | 3.02 µM | > 100 µM | 5.61 µM | 34.5 µM | 8.18 µM | > 100 µM
O=C(O)CCC1CCC(c2cc(F)ccc2F)(S(=O)(=O)c2ccc(Cl)cc2)CC1 (centres undefined) | 44.4 µM and > 100 µM | > 100 µM | 56.7 µM and > 100 µM | > 100 µM | 33.7 µM and 47.8 µM | > 100 µM | 17.8 µM and 49.3 µM | 55.4 µM and > 100 µM | 34.6 µM and 34.7 µM | > 100 µM | 34.3 µM and 85.5 µM | > 100 µM | 15.9 µM and > 100 µM | 52.5 µM and > 100 µM | 29.2 µM and > 81.4 µM | > 100 µM | 41.2 µM and > 100 µM | > 100 µM | 92.2 µM and > 100 µM | > 100 µM
O=C1/C(=C/C(Cl)=C/c2ccccc2)SC(=S)N1CCc1ccc(O)cc1 | 2.85 µM | > 100 µM | 1.67 µM | 3.6 µM | 2.05 µM | 11.2 µM | 3.24 µM | > 100 µM | 2.17 µM | > 100 µM | 1.49 µM | 3.03 µM | 2.42 µM | 9.7 µM | 1.85 µM | 16.9 µM | 2.17 µM | 7.16 µM | 2.02 µM | 3.91 µM
CCOC(=O)c1cc2ncccc2c2ccccc12 |  | > 100 µM |  | > 100 µM |  | > 100 µM |  | > 100 µM |  | > 100 µM |  | > 100 µM |  | > 100 µM |  | > 100 µM |  | > 100 µM |  | > 100 µM
CC(=O)OCC1OC(S[As](C)C)C(OC(C)=O)C1OC(C)=O (centres undefined) | 1.94 µM | 13.6 µM | 0.215 µM | 0.831 µM | 0.256 µM | 1.08 µM | 0.319 µM | 0.841 µM | 0.0721 µM | 0.618 µM | 2 µM | 13.6 µM | 0.193 µM | 0.726 µM | 0.304 µM | 1.11 µM | 1.63 µM | 6.27 µM | 0.481 µM | 2.17 µM
CCOC(=O)c1c(Cl)c2c(n1Cc1cc(OC)cc(OC)c1)-c1oncc1CCC2 | 0.419 µM | > 100 µM | 1.54 µM | > 100 µM | 0.387 µM | > 100 µM | 0.451 µM | > 100 µM | 0.225 µM | > 100 µM | 0.346 µM | > 100 µM | 0.266 µM | > 100 µM | 0.168 µM | > 100 µM | 6.84 µM | > 100 µM | 0.812 µM | > 100 µM
CC(C)(O)[C@H]1[C@@H]2OC(=O)[C@H]1[C@]1(O)C[C@H]3OC34C(=O)O[C@H]2[C@@]41C (some centres undefined) (tested in a mixture with another compound) |  | > 100 µM |  | > 100 µM |  | > 100 µM |  | > 100 µM |  | > 100 µM |  | > 100 µM |  | > 100 µM |  | > 100 µM |  | > 100 µM |  | > 100 µM
COC(=O)c1c2c(c(C)[n+]([O-])c1C)C(=O)C(NCc1ccc(F)c(F)c1)=CC2=O | 2.1 µM | 6.17 µM | 2.48 µM | 7.68 µM | 1.6 µM | 4.02 µM | 2.76 µM | 11.9 µM | 2.23 µM | 9.59 µM | 2.16 µM | 8.15 µM | 1.64 µM | 3.6 µM | 1.48 µM | 3.36 µM | 2.69 µM | 8.14 µM | 2.5 µM | 6.59 µM
COc1ccc(F)cc1C(=O)c1cnc(NC2CCN(S(C)(=O)=O)CC2)nc1N | 3.14 µM | > 23.7 µM | 1.55 µM | > 21.4 µM | 2.86 µM | > 20.5 µM | 3.93 µM | 17.8 µM | 6.25 µM | > 25 µM | 2.4 µM | > 25 µM | 4.51 µM | > 25 µM | 0.18 µM | > 25 µM | 2.56 µM | > 20.6 µM | 1.4 µM | > 14.7 µM
Cc1ccc(C(=O)NC2CCCCC2)cc1-c1ccc(C(=O)NCC2CC2)cc1 | 12.4 µM | > 25 µM | > 25 µM | > 25 µM | > 25 µM | > 25 µM | > 20.2 µM | > 25 µM | 19.4 µM | > 25 µM | > 22.5 µM | > 25 µM | > 25 µM | > 25 µM | > 23.9 µM | > 25 µM | > 25 µM | > 25 µM | > 25 µM | > 25 µM
O=C1C=CC2(C=C1)CCN=c1c(O)c3c(c(O)c12)=NC=N3 | 17.9 µM and > 100 µM | 39.2 µM and > 100 µM | 12.6 µM and > 100 µM | 25.7 µM and > 100 µM | 14.5 µM and > 100 µM | 29.9 µM and > 100 µM |  | 71.4 µM and > 100 µM |  | 42.6 µM and > 100 µM | 14.4 µM and > 100 µM | 29.1 µM and > 100 µM | 11.3 µM and > 100 µM | 23.7 µM and > 100 µM | 11.9 µM and > 100 µM | 28.7 µM and > 100 µM | 19 µM and > 100 µM | 38.4 µM and > 100 µM | 22.4 µM and > 100 µM | 37.4 µM and > 100 µM
O=C(O)CC1(C(=O)O)CCCCC1 |  | > 100 µM |  | > 100 µM |  | > 100 µM |  | > 100 µM |  | > 100 µM |  | > 100 µM |  | > 100 µM |  | > 100 µM |  | > 100 µM |  | > 100 µM
CO[C@H](C(=O)N[C@@H](CCCCNC(=O)OCc1ccccc1)C(=O)OC(C)(C)C)[C@@H]1Cc2cc3cc(OC4CC(OC5CC(O)C(O)C(C)O5)C(O)C(C)O4)c(C)c(O)c3c(O)c2C(=O)[C@H]1OC1CC(OC2CC(OC3CC(C)(O)C(O)C(C)O3)C(O)C(C)O2)C(O)C(C)O1 (some centres undefined) | 0.821 µM | 5.28 µM | 0.67 µM | 4.45 µM | 2.55 µM | > 10 µM | 1.05 µM | 5 µM | 0.635 µM | > 10 µM | 0.603 µM | 2.05 µM | 0.879 µM | 2.48 µM | 0.281 µM | 2.03 µM | 0.673 µM | 2.14 µM | 0.976 µM | 2.82 µM
